Test results: a melting point compilation (Tetko et al.; mined from patent text by program, amines drawn as free bases though some values may be those of a salt)

| SMILES | melting point [°C] |
| --- | --- |
| Cc1nc(CN2CCc3sc(Nc4ncc(F)cn4)nc3-c3c[nH]nc32)no1 | 245 |
| CCc1nn(CC(N)=O)c(CC)c1Oc1cc(Cl)cc(Cl)c1 | 164 to 166 |
| OCC1OC(c2n[nH]c3cncnc23)C(O)C1O (centres undefined) | 227 to 228 |
| Cc1cc(Cc2n[nH]c(=O)c3ccccc23)cc(C)n1 | 229 to 230 |
| CCCCCC(CC(=O)O)c1cc(C(=O)OC)c(OC)cc1OC (centres undefined) | 106 to 107 |
| N[C@H]1CCCC[C@H]1CCC(O)(P(=O)(O)O)P(=O)(O)O (relative stereo) | 131 to 133 |
| Clc1cccc(Nc2ncnc3[nH]c(-c4ccccn4)cc23)c1 | > 300 |
| CN(Cc1cccc(-c2ccc(CC3SC(=O)NC3=O)cc2)c1)C(=O)c1ccno1 (centres undefined) | 160 |
| CCCc1ccc(-c2[nH]nc3c2C(=O)c2c(NC(C)=O)cccc2-3)cc1 | 269 |
| COC(=O)CC[C@H]1CC[C@H](NC(=O)N(NC=O)c2ccc(C#N)cc2)CC1 | 140 to 142 |
| O=C(C(=O)N1C(=O)CC[C@H]1C(=O)O)c1ccccc1 | 151 to 152 |
| CCCC(=O)NCCc1c[nH]c2ccc(OCc3ccccc3)cc12 | 112 to 114 |
| Cc1c(C=NO)c2ccccc2n1-c1ccc(O)c(F)c1 | 182 to 184 |
| CCCc1c(COc2ccc(C(=O)Cc3nnn[nH]3)cc2)ccc(C(C)=O)c1O | 207 to 209 |
| O=C(c1ccccc1)N1CCN(c2cncc(Cl)n2)CC1 | 104 to 105 |
| CCN1CCN(C(=O)Cc2ccc(I)cc2)CC1 | 81 to 83 |
| COC(=O)Nc1nc2cc(S(=O)CC3(C)CC3(Cl)Cl)ccc2[nH]1 (centres undefined) | 231 to 233 |
| N#Cc1ccc(O[C@@H]2c3ncccc3C[C@H]2N2CCC[C@@H](N)C2)c(Cl)c1 | 180 |
| S=C=Nc1ccc2oc(-c3ccco3)nc2c1 | 135 to 137 |
| CCOCc1cc2ccccc2oc1=Nc1ccc(Cl)cc1 | 84 to 86 |
| COc1cc(=O)n(-c2cccc(C(F)(F)F)c2)nc1C(=O)N(C)OC | 127 to 129 |
| Cc1ccc(-c2cc(C(=O)O)nn2Cc2ccc(C)c(Cl)c2)cc1C | 163 |
| Cc1cc2ncc(Nc3ccc(Br)cc3)nc2cc1C | 235 |
| CC(C)(C)OC(=O)NCCn1cnc2cnc3ccccc3c21 | 154 to 155 |
| COC(=O)c1cc2c(Cl)cc(F)c(-n3c(=O)cc(C(F)(F)F)n(C)c3=O)c2o1 | 194 to 196 |
| c1ccc(CSc2nc[nH]n2)cc1 | 79 to 80 |

| SMILES | melting point [°C] |
| --- | --- |
| COc1cc(C(=O)N2CCC(CCN3CCCN(c4nc5ccccc5n4CCCC(C)=O)CC3)(c3ccccc3)C2)cc(OC)c1OC (centres undefined) | 95 to 112 |
| CCN(CC)CCNC(=O)c1cccc2c(=O)c3ccc(I)cc3[nH]c12 | 208 to 210 |
| COc1cc(OC)c2c(=O)cc(-c3ccc(C(F)(F)F)cc3)oc2c1C1CCN(C)C1CO (centres undefined) | 114 to 115 |
| CN1CCN(C2=Nc3ccccc3N3CCCc4cccc2c43)CC1 | 129 to 132 |
| Oc1cc(/C=C/c2ccccn2)n(-c2ccccc2)n1 | 167 to 168 |
| CC1(C)CSCC(=O)N1 | 151 to 152 |
| NC(=O)N(O)CC1CC(c2ccco2)C1 (centres undefined) | 89 to 100 |
| O=C(O)C(CC(=O)N1CCOCC1)NS(=O)(=O)c1ccc(-c2ccc(Cl)cc2)cc1 (centres undefined) | 144 to 146 |
| COc1cccc(C2=Nc3ccc(N4CCOCC4)cc3C(=O)C2)c1OC | 235 to 236 |
| CC(C)N(CCC(CCN(C(C)C)C(C)C)(C(N)=O)c1ccc(-c2ccccc2)cc1)C(C)C | 110 to 111 |
| CC(C)(C)OC(=O)N(CCCc1ccc(Cl)cc1)C1CCCC1N (centres undefined) | 95.3 to 111 |
| CS(=O)(=O)N(CCCl)N(C(=O)NCCCl)S(C)(=O)=O | 96 to 97.5 |
| CCOC(=O)c1c(C)nc2c(nc(C)n2CC)c1OCC | 62 to 65 |
| CCC(=O)Nc1nc2ccc(Cl)cc2nc1N | 300 to 302 |
| Nc1nc2ccccc2c2c1ncn2CCOCCCc1ccccc1C(=O)O | 186 to 188 |
| COc1cc(N)c(Cl)cc1C(=O)NCC1CCN(CCCCCNC(=O)Nc2ccc(Cl)cc2)CC1 | 204 to 206 |
| Clc1ccc(-c2c[nH]nc2-c2ccncc2)cc1 | 204 to 207 |
| O=c1[nH]c(=O)n2c3c(cccc13)S(=O)(=O)c1ccc(C(F)(F)F)cc1-2 | 290 to 293 |
| OCc1conc1-c1ccc(F)c(Br)c1 | 93 to 94 |
| CCCCOCCOc1ccc(-c2ccc3c(c2)C=C(C(=O)Nc2ccc(S(=O)Cc4cncn4CCC)cc2)CCCN3CC(C)C)cc1 (single isomer, unassigned; (-)) | 120 to 122 |
| COc1ccc(C=NNC(=N)N)cc1OC1CCCC1 | 100 to 103 |
| O=c1[nH]c2ccc([N+](=O)[O-])cc2c(=O)n1CCCN1CC=C(c2ccc(Cl)cc2)CC1 | 205 to 207 |
| CN1CC[C@@H]2CC(=O)c3c(F)cc(F)cc3[C@@H]2C1 (relative stereo) | > 220 |
| CCCOc1cc(OC)c2c(c1)C(=O)c1cccc(OC(C)C)c1-2 | 114 to 116 |
| CCOC(=O)c1cc2cc(OCCOC)cc(NS(=O)(=O)c3cccs3)c2[nH]1 | 106 to 107 |
| CC(=O)Nc1ccc(NC(=O)CCl)c(O)c1 | 218 |

| SMILES | melting point [°C] |
| --- | --- |
| CC(C)(C)CNC(=O)Oc1ccccc1 | 77 to 78 |
| O=C(O)Cc1cccc2c(=O)cc(-c3cc(F)ccc3F)oc12 | 222 to 224 |
| O=C(O)C(Cl)C1c2c(Cl)c(Cl)c(Cl)c(Cl)c2C(Cl)(Cl)C1(Cl)Cl (centres undefined) | 214 to 216 |
| CC1CC(O)=NN1c1ccc(Cl)c(Cl)c1 (centres undefined) | 208 to 211 |
| CCN(C)c1cc(Br)cc(S(=O)(=O)c2ccc(N)cc2)c1 | 162 to 164 |
| COc1ccc(-c2c(Cl)c(CN3C(=O)c4ccccc4C3=O)nc3sc4c(c23)CCS(=O)(=O)C4)cc1 | 298 to 299 |
| O=C1CCC(=O)N1CC#CCn1ccnc1 | 120 to 122 |
| CC(C)NCC(O)COc1ccc2c(c1)OC(C)CC2 (centres undefined) | 79 to 81 |
| COc1ccc(-c2nn(C3CCCC3)c3c(F)cccc23)cc1 | 70 to 71 |
| CC(C)(CO)NS(=O)(=O)c1cccc(NC(=O)c2cnn3c(C(F)(F)F)cc(-c4ccc(C(F)(F)F)cc4)nc23)c1 | 227 |
| CN(C)c1cccc(S(=O)Nc2ccccc2)c1 (centres undefined) | 86 to 87 |
| CC(C)(SCC(=O)O)c1ccc2c(c1)OCO2 | 78.5 to 80 |
| COc1ccc(N2C(=O)C(Oc3ccccc3)C2c2ccc(C(=O)O)cc2)cc1 (centres undefined) | 246 |
| CC(C)(C)c1cc(-c2csc(CN3CCOCC3)n2)cc(C(C)(C)C)c1O | 137 |
| CCCOc1ccc(-c2ccc(-c3ccccc3Cl)n2Cc2ccc(OCCO)c(N)n2)cc1 | 89 to 92 |
| CCCC(O)c1ccc(C(=O)O)cc1 (centres undefined) | 109 to 113 |
| CC(C)(C)C1(O)CCCCC1 | 49 to 50 |
| CCN(CC)[C@@H]1CCC[C@H]1Nc1ccnc2cc(Cl)ccc12 (racemic) | 186 to 190 |
| CC1(C)CN(CCN2CCN(c3cccc(Cl)c3)C2=O)C1 | 84 to 85 |
| CCCCCCCCCCCCCCCCCCSP(=S)(C1CCCCC1)C1CCCCC1 | 67 to 69 |
| CCN(C)C(=O)c1cc(-c2ccccc2)c2sccc2c1 | 93 |
| CC(=O)c1ccc(Cc2c(Cl)cc(N)cc2Cl)cc1 | 97 to 98 |
| CC12CCC(C(=Cc3ccc(C(=O)O)cc3)C1=O)C2(C)C (centres undefined) | 240 |
| O=C(O)c1c[nH]c2cn[nH]c2c1=O | > 330 |
| CCCCCc1ccc(-c2ccc(Cl)s2)cn1 | 32 |
| Cc1c2c(c(-c3ccc(F)cc3)c3c4c(ccc13)OCO4)C(=O)NC2=O | 302 to 304 |

| SMILES | melting point [°C] |
| --- | --- |
| Cc1nccn1-c1nc(NCc2ccccc2)c2ccccc2n1 | 182 to 186 |
| O=C(NCc1ccccc1)C1=C(c2ccccc2)C(c2ccccc2)OC1=O (centres undefined) | 173 to 175 |
| CC(C)CN1C(=O)C(C)(C)C(=O)Nc2cc(C=O)ccc21 | 154 to 155 |
| Cc1cc2[nH]nnc2c(Br)c1C | 255 to 262 |
| COc1c(C)c(CO)c(OC)c2ccccc12 | 116 to 117 |
| CS(=O)(=O)C1CCCC1Br (centres undefined) | 50 to 52 |
| Cc1cc(N2CCCC(O)C2)c(S(C)(=O)=O)cc1C(=O)N=C(N)N (centres undefined) | 194 to 196 |
| CC1COc2c(N3CCC(CN)C3)c(F)cc3c(=O)c(C(=O)O)cn1c23 (centres undefined) | 213 to 216 |
| CC(C)(NCCCn1cnc(CO)c1)c1ccc(-c2ccccc2)cc1 | 128 to 130 |
| COc1cc2c(c(OC)c1)C(=O)CCC2 | 58 to 61 |
| CC1=NN(C(=O)NS(=O)(=O)c2ncccc2C(F)(F)F)C(c2ccccc2)C1 (centres undefined) | 185 to 187 |
| O=C(O)CN(CCN(CC(=O)O)C(Cc1ccccc1)C(=O)O)CC(=O)O (centres undefined) | 120 |
| Cc1ccc(NC(=O)C(CC2CCCC2)c2ccc(S(C)(=O)=O)cc2)nc1 (centres undefined) | 82 to 85 |
| CCCCCN(CCc1c[nH]c2ccccc12)C(=O)CCCC(=O)OC | 70 to 71 |
| CCc1c(CO)nc(-c2ccc(OC)c(OC)c2)c2cc(OC)c(OC)cc12 | 160 to 163 |
| O=C(O)CC(Sc1cccs1)C(=O)O (centres undefined) | 136 to 138 |
| CCCCc1oc2ccccc2c1C(=O)c1ccc(N(CCN(CC)CC)S(=O)(=O)c2cccnc2)cc1 | 141 to 146 |
| COc1ccc(C=C2CCN(C(=O)c3nc4ccc(O)cc4[nH]3)CC2)cc1 | 208 |
| COC(=O)C(=O)c1ccc(OCCOc2ccc3ccccc3c2)c(F)c1 | 136 to 138 |
| N#Cc1ccc(N(Cc2ccc(OCc3ccccc3)cc2)n2cnnc2)cc1-c1ccc(C(F)(F)F)cc1 | 173 to 175 |
| O=C(CCl)c1ccc2c(c1)CCO2 | 85 to 87 |
| CCOC(=O)c1c(C(F)(F)F)nc(C(F)F)c(C(=O)OC)c1NC(C)C | 53 to 55 |
| CCOC(=O)/C=C/c1cn(-c2ccc(C(F)(F)F)cn2)nc1C1CCCCC1 | 132 to 133 |
| Cc1nc2c(s1)CCCC2=O | 86 to 87 |
| CCC12CCC3C4CCCC=C4CCC3C1C=CC2=O (centres undefined) | 125 |
| CCc1oc2ccccc2c1C(=O)c1cc(Br)c(OS(=O)(=O)c2ccc(C(=O)O)c(O)c2)c(Br)c1 | 173 |
